According to patent publication EP0269841A1, “1-Hydroxyalkyl xanthines, processes for their preparation and medicaments containing them” (SOCIETE DES PRODUITS NESTLE S.A., priority 1986, dated 1988):

test system: oreillette gauche du cobaye isolée et stimulée électriquement; assay: In vitro inotropic (cardiotonic) activity: contraction force of isolated, electrically stimulated guinea pig left atrium; assay type: cell-based; settings: read-out: Cardiotonique (concentration minimale efficace en ug/ml produisant une réponse significative)
Excerpt: Les composés (I) selon l'invention ont été trouvés peu toxiques et n'ont pas ou peu d'effet sur le système nerveux central. Par contre, ils se sont montrés actifs dans les test in vitro d'activité inotropique (cardiotonique). Le Tableau (IV) ci-dessous donne les résultats de ces essais.
Theophylline 15 Amrinone ^2) 100 Milrinone ^2) 0,5 IBMX^3) 0,5 • 1) Mesure de la force de contraction de l'oreillette gauche du cobaye isolée et stimulée électriquement, selon Erjavek, F. and Adamic, S., Arch. Int. Pharmacodyn. 155: 251, 1965. Une réponse est considérée comme significative lorsque la force de contraction de base est augmentée de plus de 40 %. • 2) Médicament cardiotonique selon l'état de la technique • 3) 1-méthyl-3-isobutylxanthine

Question: How did the minimal effective concentration turn out when `Cc1[nH]c(=O)c(C#N)cc1-c1ccncc1` [Milrinone, reference compound] was run?
Answer: 0.5 µg/mL

same assay, conditions: significant response = basal contraction force increased by more than 40 %; isolated left atrium of guinea pig, electrically stimulated

Question: With `CCCn1c(=O)n(CCCCCO)c(=O)c2[nH]c(C)nc21` [compound 27] as the molecule, how does the “Cardiotonique (concentration minimale efficace en ug/ml produisant une réponse significative)” value read?
Answer: 0,3 ug/ml

Question: Which “Cardiotonique (concentration minimale efficace en ug/ml produisant une réponse significative)” value does the source give for `CCCCn1c(=O)n(CC(C)O)c(=O)c2[nH]cnc21` (stereo not shown) [compound 6] here?
Answer: 4,2 ug/ml

same assay, conditions: significant response = basal contraction force increased by more than 40 %; isolated left atrium of guinea pig, electrically stimulated; listed as 1

Question: For `CCCn1c(=O)n(CCCCCO)c(=O)c2[nH]c(C)nc21` [Xanthine No. 27, 1-(5-Hydroxypentyl)-3-propyl-8-methylxanthine], which “Cardiotonique (concentration minimale efficace en ug/ml produisant une réponse significative)” value is on record?
Answer: 1 µg/mL

same assay, conditions: significant response = basal contraction force increased by more than 40 %; isolated left atrium of guinea pig, electrically stimulated; listed as 2

Question: For `CCCCn1c(=O)n(CCCCO)c(=O)c2[nH]cnc21` [Xanthine No. 21, 1-(4-Hydroxybutyl)-3-butylxanthine], which “Cardiotonique (concentration minimale efficace en ug/ml produisant une réponse significative)” value is on record?
Answer: 2,5 ug/ml

same assay, conditions: significant response = basal contraction force increased by more than 40 %; isolated left atrium of guinea pig, electrically stimulated; listed as 3

Question: How did the “Cardiotonique (concentration minimale efficace en ug/ml produisant une réponse significative)” value turn out when `CC(C)Cn1c(=O)n(CCC(C)O)c(=O)c2[nH]cnc21` (stereo not shown) [Xanthine No. 17, 1-(3-Hydroxybutyl)-3-isobutylxanthine] was run?
Answer: 2 µg/mL

same assay, conditions: significant response = basal contraction force increased by more than 40 %; isolated left atrium of guinea pig, electrically stimulated; read-out: Cardiotonique (concentration minimale efficace en ug/ml produisant une réponse significative)

Question: For `CCCn1c(=O)n(CCCO)c(=O)c2[nH]c(C)nc21` [compound 8], which minimal effective concentration is on record?
Answer: 4.2 µg/mL

Question: How did the minimal effective concentration turn out when `Cn1c(=O)n(CCCCCO)c(=O)c2[nH]cnc21` [compound 25] was run?
Answer: 6.7 µg/mL

Question: For `CCCn1c(=O)n(CCCCCO)c(=O)c2[nH]cnc21` [compound 26], which minimal effective concentration is on record?
Answer: 0.2 µg/mL

Question: `Cc1nc2c([nH]1)c(=O)n(CCCO)c(=O)n2CC(C)C` [compound 12] was tested. Which minimal effective concentration did it give?
Answer: 0.5 µg/mL

Question: Which minimal effective concentration does the source give for `CCCn1c(=O)n(CCCCO)c(=O)c2[nH]cnc21` [compound 19] here?
Answer: 0.4 µg/mL

Question: With `CCCn1c(=O)n(CCCO)c(=O)c2[nH]c(CC)nc21` [compound 9] as the molecule, how does the minimal effective concentration read?
Answer: 2 µg/mL

Question: For `CCn1c(=O)n(CCC(C)O)c(=O)c2[nH]c(C)nc21` (stereo not shown) [compound 15], which minimal effective concentration is on record?
Answer: 0.6 µg/mL

Question: How did the minimal effective concentration turn out when `Cc1nc2c([nH]1)c(=O)n(CCCCO)c(=O)n2CC(C)C` [compound 22] was run?
Answer: 25 µg/mL

Question: How did the minimal effective concentration turn out when `CC(C)Cn1c(=O)n(C)c(=O)c2[nH]cnc21` [IBMX, 1-méthyl-3-isobutylxanthine, reference compound] was run?
Answer: 0.5 µg/mL

Question: For `CCCn1c(=O)n(CCCCO)c(=O)c2[nH]c(C)nc21` [compound 20], which minimal effective concentration is on record?
Answer: 0.7 µg/mL

Question: For `CCCCn1c(=O)n(CC(C)O)c(=O)c2[nH]cnc21` (stereo not shown) [Xanthine No. 6, 1-(2-Hydroxypropyl)-3-butylxanthine], which minimal effective concentration is on record?
Answer: 3.3 µg/mL

Question: Which minimal effective concentration does the source give for `CC(O)CCCn1c(=O)c2[nH]cnc2n(C)c1=O` (stereo not shown) [compound 23] here?
Answer: 33.3 µg/mL

Question: For `CCCn1c(=O)n(CCCO)c(=O)c2[nH]cnc21` [compound 7], which minimal effective concentration is on record?
Answer: 1.3 µg/mL

Question: How did the minimal effective concentration turn out when `CC(O)CCn1c(=O)c2[nH]cnc2n(C)c1=O` (stereo not shown) [compound 13] was run?
Answer: 50 µg/mL

Question: How did the minimal effective concentration turn out when `CCCCn1c(=O)n(CCCCO)c(=O)c2[nH]cnc21` [compound 21] was run?
Answer: 2 µg/mL

Question: With `CCCn1c(=O)n(CC(C)O)c(=O)c2[nH]c(C)nc21` (stereo not shown) [compound 5] as the molecule, how does the minimal effective concentration read?
Answer: 0.6 µg/mL

Question: `CCCCn1c(=O)n(CCCO)c(=O)c2[nH]cnc21` [compound 10] was tested. Which minimal effective concentration did it give?
Answer: 0.4 µg/mL

Question: With `CC(C)Cn1c(=O)n(CCC(C)O)c(=O)c2[nH]cnc21` (stereo not shown) [compound 17] as the molecule, how does the minimal effective concentration read?
Answer: 1.3 µg/mL

Question: Which minimal effective concentration does the source give for `CC(C)Cn1c(=O)n(CCCO)c(=O)c2[nH]cnc21` [compound 11] here?
Answer: 0.7 µg/mL

Question: For `Cn1c(=O)c2[nH]cnc2n(C)c1=O` [Theophylline, reference compound], which minimal effective concentration is on record?
Answer: 15 µg/mL

Question: `CCCn1c(=O)n(CCCC(C)O)c(=O)c2[nH]cnc21` (stereo not shown) [compound 24] was tested. Which minimal effective concentration did it give?
Answer: 0.7 µg/mL

Question: For `CCCn1c(=O)n(CCC(C)O)c(=O)c2[nH]cnc21` (stereo not shown) [compound 16], which minimal effective concentration is on record?
Answer: 0.1 µg/mL

Question: How did the minimal effective concentration turn out when `CCn1c(=O)n(CCC(C)O)c(=O)c2[nH]cnc21` (stereo not shown) [compound 14] was run?
Answer: 0.8 µg/mL

Question: Which minimal effective concentration does the source give for `CCn1c(=O)n(CCCCO)c(=O)c2[nH]cnc21` [compound 18] here?
Answer: 3.3 µg/mL

Question: `Nc1cc(-c2ccncc2)c[nH]c1=O` [Amrinone, reference compound] was tested. Which minimal effective concentration did it give?
Answer: 100 µg/mL
